Experimental data published in patent US10398747B2, “Composition comprising the extract of herbal combination for preventing or treating diabetic peripheral neuropathy” (DONG-A ST CO., LTD., priority 2011, dated 2019).

Experiments:
[1] = tested on: SD male rats with streptozotocin-induced type 1 diabetes; assay: Tail-flick test, latent time to thermal pain, streptozotocin-diabetic SD rats; assay type: in vivo, rat
Experimental: (§1) The ability of the extracts to alleviate the pain caused by diabetic neuropathy was examined. In this regard, rats with streptozotocin-induced diabetes were separated and orally administered with the extracts at a predetermined dose once a day for 14 weeks, with α-lipoic acid 50 mg/kg and Gabapentin 100 mg/kg serving as positive controls. A Randall-Sellito test was performed to measure a threshold response to pressure on a paw. The latent time taken to respond to a thermal pain was measured using a tail-flick test. In order to evaluate the neurodegeneration which had progressed with the onset of diabetic neuropathy, the sciatic nerve taken from the rats of each group was fixed with formalin and observed under an electron microscope to measure the size and thickness of the myelin sheath, and the results are summarized in Table 9.
(§2) An increase in threshold to mechanical stimuli delineates an increase in threshold to pain. In the tail flick test, an increase in latent time to pain response corresponds to an increase in threshold to thermal stimuli, indicating the alleviation of pain.

[2] = tested on: SD male rats with streptozotocin-induced type 1 diabetes; assay: Neurodegeneration: size and thickness of myelin sheath of sciatic nerve by electron microscope, streptozotocin-diabetic SD rats; assay type: in vivo, rat
Experimental: as §1

[3] = tested on: nerve growth factor (NGF); assay: NGF level in sciatic nerve of db/db male mice with type 2 diabetes (ELISA); assay type: in vivo, mouse
Experimental: (§3) db/db Male mice, each weighing 40^˜45 g, were acclimated for one week at 22-24° C. at a relative humidity of 60-80%, with a standard diet and water fed thereto. On the day of the 9th week after birth, the mice in which diabetes had been induced were selected. Four weeks later, mice suffering from type 2 diabetes were separated according to blood sugar level. The extracts prepared in the above Examples were orally administered once a day for 12 weeks at predetermined doses to the mice, while α-lipoic acid and gabapentin were used as positive controls at a dose of 50 mg/kg and 100 mg/kg, respectively. Mice in each group were placed on a 58° C. hot plate, and examined for hyperalgesia to heat stimulus by measuring the latent time it took for the mice to feel a heat pain on their foot soles and jump.
Then, the mice were sacrificed to obtain the sciatic nerve therefrom. The sciatic nerve was processed in the same manner as in Test Example 1 and its NGF level was measured by ELISA.

[4] = tested on: nerve growth factor (NGF); assay: NGF level in sciatic nerve and salivary gland of ICR male mice with streptozotocin-induced type 1 diabetes (ELISA); assay type: in vivo, mouse; conditions: streptozotocin-diabetic ICR male mice
Experimental: (§4) ICR male mice, each weighing 25^˜30 g, were acclimated for one week at 22-24° C. at a relative humidity of 60-80%, with a standard diet and water fed thereto. Thereafter, a solution of streptozotocin in saline was intravenously administered once at a dose of 200 mg/kg to the mice to induce type 1 diabetes. Four weeks after the induction of diabetes, rats were divided into groups according to blood sugar level. The extracts prepared in the above Examples were orally administered once a day for 14 weeks at predetermined doses to the mice, while α-lipoic acid and Gabapentin were used as positive controls at a dose of 50 mg/kg and 100 mg/kg, respectively. Mice in each group were placed on a 58° C. hot plate, and examined for hyperalgesia to heat stimulus by measuring the latent time it took for the mice to feel a heat pain on their foot soles and jump.
Then, the mice were sacrificed to obtain the sciatic nerve and the salivary glands therefrom. The sciatic nerve and the salivary glands were processed in the same manner as in Test Example 1 and measured for NGF level by ELISA.

[5] = tested on: nerve growth factor (NGF); assay: NGF level in sciatic nerve and salivary gland of SD male rats with streptozotocin-induced type 1 diabetes (ELISA); assay type: in vivo, rat; conditions: streptozotocin-diabetic SD male rats
Experimental: SD male rats, each weighing 220^˜250 g, were acclimated for one week at 22-24° C. at a relative humidity of 60-80% with standard diet and water fed thereto. Thereafter, a solution of streptozotocin in saline was intravenously administered once at a dose of 50 mg/kg to the rats to induce type 1 diabetes. Four weeks after the induction of diabetes, rats were divided into groups according to blood sugar level. The extracts prepared in the above Examples were orally administered once a day for 8 weeks at predetermined doses to the rats, while α-lipoic acid and Gabapentin were used as positive controls at does of 50 mg/kg and 100 mg/kg, respectively. Then, they were sacrificed to obtain the sciatic nerve and the salivary glands. The sciatic nerve and the salivary glands were processed in the same manner as in Test Example 1 and measured for NGF level by ELISA.

[6] = tested on: SD male rats with streptozotocin-induced type 1 diabetes; assay: Randall-Sellito test, threshold response to pressure on a paw, streptozotocin-diabetic SD rats; assay type: in vivo, rat
Experimental: as §1, §2

[7] = tested on: nerve growth factor (NGF); assay: Test for in vivo level of nerve growth factor in normal mouse model (ELISA); conditions: normal male ICR mice
Experimental: Ability of the crude extract with 50% ethanol in Example 1 to induce the secretion of nerve growth factor in vivo was evaluates (O. Arrieta and J. Sotelo et al., Retinoic acid increased tissue and plasma contents of nerve growth factor and prevents neuropathy in diabetic mice. European Journal of Clinical Investigation (2005) 35).
Male ICR mice, each weighing 25-30 g, were acclimated for 1 week at 22-24° C. at a relative humidity of 60-80% while being fed with water and a standard diet. They were divided into groups according to weight. The extracts prepared in the above Examples were orally administered in predetermined amounts to the mice, with Gabapentin used as a positive control at a doe of 100 mg/kg. 16 hours after which blood was sampled from the mice. They were then sacrificed to obtain the sciatic nerve and the salivary glands.
After the blood samples were centrifuged at 10,000 rpm for 10 min, the levels of nerve growth factor in the plasma thus separated were measured by ELISA (ABS 440 nm). The sciatic nerve and the salivary glands were weighed and a solution containing 100 mM Tris-HCl, 1M NaCl, 2% BSA, 4 mM EDTA, 2.0% Trtion®X-100, 0.02% sodium azide, 0.1 mg/ml pepstatin A, 5 mg/ml aprotonin, 0.5 mg/ml antipain, 167 mg/ml benzamidine, and 5.2 mg/ml PMSF was added in amounts proportional to the weights, followed by homogenization. The homogenates were incubated for 15 min with 1N HCl in an amount of 1 μl/50 μl for oxidization and neutralized with 1N NaOH in an amount of 1 μl/50 μl. Centrifugation was performed at 10,000 rpm for 10 min to obtain supernatants. Like plasma, the sciatic nerve and the salivary glands were quantitatively analyzed for the level of nerve growth factor.

[8] = tested on: ICR male mice with streptozotocin-induced type 1 diabetes; assay: 58° C. hot plate test, ICR male mice with streptozotocin-induced type 1 diabetes; assay type: in vivo, mouse; conditions: streptozotocin-diabetic ICR male mice
Experimental: as §4

[9] = tested on: db/db male mice with type 2 diabetes; assay: 58° C. hot plate test, db/db male mice with type 2 diabetes; assay type: in vivo, mouse
Experimental: as §3

[10] = tested on: DRG (Dorsal root ganglion) nerve cells; assay: Growth of neurites in rat-derived DRG nerve cells (neurite area under microscope); assay type: cell-based; conditions: rat embryo DRG cells, 48 hours
Experimental: For use in this test, DRG nerve cells were seeded at the same density into plates and incubated for 24 hours. Thereafter, the cells were washed with PBS and cultured for 48 hours in a culture medium in the absence or presence of a combination of the extract of Example 1 or Comparative Examples 1 to 10, and NGF. The nerve cells in each group were observed under a microscope to measure the area of the neurites grown therein.

[11] = tested on: PC12 nerve cells; assay: Growth of PC12 nerve cells (MTS assay); assay type: cell-based, rat; conditions: 48 hours
Experimental: For use in a test for ability to induce nerve cell growth, PC12 nerve cells were seeded at the same density per well into plates and incubated for 24 hours.

[12] = tested on: TrkA (NGF receptor); assay: Phosphorylation of NGF receptor in PC12 nerve cells (Western blotting); assay type: cell-based, rat; conditions: 48 hours
Experimental: For use in this test, PC12 nerve cells were seeded at the same density per well into plates and incubated for 24 hours. The cells were washed with PBS and cultured for 48 hours in culture media supplemented with the herb extracts of Example 1 or Comparative Examples 1 to 10 or NGF. Thereafter, phosphorylated TrkA (NGF receptor) were detected using Western blotting, and quantitatively analyzed on the basis of the thickness of the detected bands.
NGF signaling starts with the binding of NGF to its receptor (Trk-A), which results in the phosphorylation of the receptor. Thus, an increased level of phosphorylated NGF receptors means the amplification of the NGF signaling pathway.

[13] = oral 100 mg/kg once a day for 14 weeks
[14] = oral 100 mg/kg once a day for 12 weeks
[15] = oral 100 mg/kg once a day for 8 weeks
[16] = oral 100 mg/kg, 16 hours after dosing
[17] = 50 mg/kg once a day for 14 weeks
[18] = 50 mg/kg once a day for 12 weeks
[19] = 50 mg/kg once a day for 8 weeks

## NCC1(CC(=O)O)CCCCC1 [Gabapentin]
[1]; [13]
  Latent Time to Pain Reaction: 7.7 s
[2]; 100 mg/kg
  Size of Myelin sheath: 10.4 μm
  Thickness of Myelin sheath: 2.2 μm
[3]; [14]
  NGF Level in Sciatic Nerve: 7.2 pg/mg
[4]; [13]
  NGF Level Salivary Gland: 117.1 ng/mg
  NGF Level Sciatic Nerve: 5.5 pg/mg
[5]; [15]
  NGF Level Salivary Gland: 2.4 ng/mg
  NGF Level Sciatic Nerve: 14.9 pg/mg
[6]; [13]
  Pressure Pain Threshold: 137.7 g
[7]; [16]
  NGF Level in Plasma: 610.4 pg/mL
  NGF Level in Salivary Gland: 193.1 ng/mg
  NGF Level in Sciatic Nerve: 4.2 pg/mg
[8]; [13]
  Latent Time to Pain Response on 58° C. Hot Plate: 33.0 s
[9]; [14]
  Latent Time to Pain Response on 58° C. Hot Plate: 16.1 s

## O=C(O)CCCCC1CCSS1 (stereo not drawn) [α-Lipoic acid]
[1]; [17]
  Latent Time to Pain Reaction: 7.4 s
[2]; 50 mg/kg
  Size of Myelin sheath: 11.2 μm
  Thickness of Myelin sheath: 2.6 μm
[3]; [18]
  NGF Level in Sciatic Nerve: 7.6 pg/mg
[4]; [17]
  NGF Level Salivary Gland: 118.7 ng/mg
  NGF Level Sciatic Nerve: 5.7 pg/mg
[5]; [19]
  NGF Level Salivary Gland: 2.8 ng/mg
  NGF Level Sciatic Nerve: 13.8 pg/mg
[6]; [17]
  Pressure Pain Threshold: 150.0 g
[7]; 50 mg/kg
  NGF Level in Salivary Gland: 164.4 ng/mg
  NGF Level in Sciatic Nerve: 5.0 pg/mg
[8]; [17]
  Latent Time to Pain Response on 58° C. Hot Plate: 31.1 s
[9]; [18]
  Latent Time to Pain Response on 58° C. Hot Plate: 15.4 s

## NGF: nerve growth factor added to culture media
[10]; NGF 2 ng/ml alone
  Neurite Area of DRG Nerve Cell: 235 μm^2
[10]; NGF 50 ng/ml alone
  Neurite Area of DRG Nerve Cell: 461 μm^2
[11]; 2 ng/ml
  Proliferative Effect on Nerve Cell: 112 % of control
[11]; 50 ng/ml
  Proliferative Effect on Nerve Cell: 118 % of control
[12]; NGF 2 ng/ml alone
  Relative Amount of Phosphorylated NGF: 241 % of control
[12]; NGF 50 ng/ml alone
  Relative Amount of Phosphorylated NGF: 337 % of control
